Test results taken from patent US20150105252A1, “SUBSTITUTED PYRAZOLES AS HERBICIDES” (E I DU PONT DE NEMOURS AND COMPANY, priority 2013, published 2015).

What was measured:
[1] = tested on: johnsongrass; assay: Test C preemergence; assay type: in vivo, Sorghum halepense; conditions: for Plant response rating (scale of 0 to 100), Johnsongrass: Preemergence, 250 g ai/ha; for Johnsongrass plant response rating / Plant response rating, Johnsongrass: preemergence; for Plant response rating, Johnsongrass: scale 0 to 100, 0 = no effect, 100 = complete control
Procedure, shortened: (§1)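 Visual control ratings on a 0–100 scale (100 = complete control) made against untreated controls after 13 to 15 days in greenhouse. Compounds applied in surfactant-containing solvent mixture, either preemergence to loam/sand-sown seeds or postemergence to 1- to 4-leaf plants (2–18 cm) in peat medium.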

[2] = tested on: morningglory; assay: Test A postemergence; assay type: in vivo, Ipomoea spp.
Procedure, shortened: (§2)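 Ratings express plant response from 0 (no effect) to 100 (complete control), judged visually against untreated controls after approximately 10 days in the greenhouse. Preemergence applications were made as directed soil sprays onto seeded loam–sand mix, and postemergence applications onto 2–10 cm plants at one- to two-leaf stage.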

[3] = tested on: foxtail, giant; assay: Test A postemergence; assay type: in vivo, Setaria faberii
Procedure, shortened: as §2

[4] = tested on: soybean; assay: Test C postemergence; assay type: in vivo, Glycine max; conditions: for Soybean plant response rating / Plant response rating, Soybean: postemergence; for Soybean plant response rating: 62 g ai/ha, scale 0 to 100; for Plant response rating (scale of 0 to 100 where 0 is no effect and 100 is complete control), Soybean: Postemergence, 31 g ai/ha, visually evaluated after 13 to 15 days
Description: (§3) Seeds of plant species selected from blackgrass (Alopecurus myosuroides), ryegrass, Italian (Italian ryegrass, Lolium multiflorum), wheat (winter wheat, Triticum aestivum), galium (catchweed bedstraw, Galium aparine), corn (Zea mays), crabgrass, large (large crabgrass, Digitaria sanguinalis), foxtail, giant (giant foxtail, Setaria faberii), johnsongrass (Sorghum halepense), lambsquarters (Chenopodium album), morningglory (Ipomoea coccinea), nutsedge, yellow (yellow nutsedge, Cyperus esculentus), pigweed (redroot pigweed, Amaranthus retroflexus), ragweed (common ragweed, Ambrosia elation), soybean (Glycine max), barnyardgrass (Echinochloa crus-galli), oilseed rape (Brassica napus), waterhemp (common waterhemp, Amaranthus rudis), oat, wild (wild oat, Avena fatua), kochia (Kochia scoparia), Surinam grass (Brachiaria decumbens), foxtail, green (green foxtail, Setaria viridis), goosegrass (Eleusine indica), bromegrass, downy (downy bromegrass, Bromus tectorum), nightshade (eastern black nightshade, Solanum ptycanthum), cocklebur (common cocklebur, Xanthium strumarium), cupgrass, woolly (woolly cupgrass, Eriochloa villosa), bermudagrass (Cynodon dactylon), sunflower, (common oilseed sunflower, Helianthus annuus), Russian thistle (Salsola kali), and velvetleaf (Abutilon theophrasti) were planted into a blend of loam soil and sand and treated preemergence with test chemicals formulated in a non-phytotoxic solvent mixture which included a surfactant.
(§4) At the same time, plants selected from these crop and weed species and also chickweed (common chickweed, Stellaria media), canarygrass (littleseed canarygrass, Phalaris minor), and deadnettle (henbit deadnettle, Lamium amplexicaule), were planted in pots containing Redi-Earth® planting medium (Scotts Company, 14111 Scottslawn Road, Marysville, Ohio 43041) comprising spaghnum peat moss, vermiculite, wetting agent and starter nutrients and treated with postemergence applications of test chemicals formulated in the same manner. Plants ranged in height from 2 to 18 cm (1- to 4-leaf stage) for postemergence treatments. Treated plants and controls were maintained in a greenhouse for 13 to 15 days, after which time all species were compared to controls and visually evaluated. Plant response ratings, summarized in Table C, are based on a scale of 0 to 100 where 0 is no effect and 100 is complete control. A dash (-) response means no test result.

[5] = tested on: ducksalad; assay: Test B flood; assay type: in vivo, Heteranthera limosa; conditions: 250 g ai/ha, visual rating on 0 to 100 scale (0 no effect, 100 complete control), 13 to 15 days
Procedure, shortened: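 At two leaves, seedlings received the test compound via the paddy water, pots having been flooded 3 cm over the soil surface and kept so. Greenhouse-held for 13 to 15 days, then judged by eye against controls on a scale running 0 (no effect) to 100 (complete control).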

[6] = tested on: morningglory; assay: Test C preemergence; assay type: in vivo, Ipomoea coccinea
Procedure, shortened: as §1

[7] = tested on: crabgrass, large; assay: Test C postemergence; assay type: in vivo, Digitaria sanguinalis; conditions: for Crabgrass, Large plant response rating: scale 0 to 100; for Plant response rating (scale of 0 to 100 where 0 is no effect and 100 is complete control), Crabgrass, Large: visually evaluated after 13 to 15 days
Description: as §3, §4

[8] = tested on: crabgrass, large; assay: Test C preemergence; assay type: in vivo, Digitaria sanguinalis; conditions: for Plant response rating (scale of 0 to 100), Crabgrass, Large: Preemergence, 250 g ai/ha; for Crabgrass, Large plant response rating / Plant response rating, Crabgrass, Large: preemergence; for Plant response rating, Crabgrass, Large: scale 0 to 100, 0 = no effect, 100 = complete control
Procedure, shortened: as §1

[9] = tested on: velvetleaf; assay: Test C postemergence; assay type: in vivo, Abutilon theophrasti; conditions: for Velvetleaf plant response rating / Plant response rating, Velvetleaf: postemergence; for Velvetleaf plant response rating: 62 g ai/ha, scale 0 to 100; for Plant response rating (scale of 0 to 100 where 0 is no effect and 100 is complete control), Velvetleaf: Postemergence, 31 g ai/ha, visually evaluated after 13 to 15 days
Description: as §3, §4

[10] = tested on: blackgrass; assay: Test C preemergence; assay type: in vivo, Alopecurus myosuroides
Procedure, shortened: as §1

[11] = tested on: oilseed rape; assay: Test C postemergence; assay type: in vivo, Brassica napus; conditions: for Plant response rating (scale of 0 to 100 where 0 is no effect and 100 is complete control), Oilseed Rape: Postemergence, 31 g ai/ha, visually evaluated after 13 to 15 days; for Oilseed Rape plant response rating / Plant response rating, Oilseed Rape: postemergence; for Oilseed Rape plant response rating: 62 g ai/ha, scale 0 to 100
Description: as §3, §4

[12] = tested on: waterhemp; assay: Test C postemergence; assay type: in vivo, Amaranthus rudis; conditions: for Plant response rating (scale of 0 to 100 where 0 is no effect and 100 is complete control), Waterhemp: Postemergence, 31 g ai/ha, visually evaluated after 13 to 15 days; for Waterhemp plant response rating / Plant response rating, Waterhemp: postemergence; for Waterhemp plant response rating: 62 g ai/ha, scale 0 to 100
Description: as §3, §4

[13] = 31 g ai/ha, scale 0 to 100 (0 no effect, 100 complete control), 13 to 15 days
[14] = 125 g ai/ha, scale 0 to 100, 0 is no effect, 100 is complete control
[15] = Postemergence, 1000 g ai/ha, visual rating after approx. 10 days, 0 to 100 scale (0 no effect, 100 complete control)
[16] = 250 g ai/ha, scale 0 to 100 (0 no effect, 100 complete control)
[17] = 125 g ai/ha, scale 0 to 100, 0 no effect, 100 complete control
[18] = preemergence, 31 g ai/ha, scale 0 to 100 (0 no effect, 100 complete control), 13 to 15 days
[19] = preemergence, 62 g ai/ha, 13 to 15 days, scale 0 to 100, 0 = no effect, 100 = complete control
[20] = preemergence, 125 g ai/ha, scale 0 to 100, 0 is no effect, 100 is complete control
[21] = postemergence, 250 g ai/ha, scale 0 to 100 (0 no effect, 100 complete control)
[22] = postemergence, 125 g ai/ha, scale 0 to 100, 0 no effect, 100 complete control
[23] = 31 g ai/ha, visual rating, scale 0 to 100 (0 no effect, 100 complete control), 13 to 15 days
[24] = 62 g ai/ha, scale 0 to 100 (0 no effect, 100 complete control), 13 to 15 days
[25] = Postemergence, 500 g ai/ha, visual rating after approx. 10 days, 0 to 100 scale (0 no effect, 100 complete control)
[26] = postemergence, 125 g ai/ha, about 10 days, visual rating on 0 to 100 scale (0 no effect, 100 complete control)

Row | SMILES | Plant response rating (scale of 0 to 100), Johnsongrass [1] | Johnsongrass plant response rating [1, 13] | Plant response rating, Johnsongrass ([1]; 62 g ai/ha, 13 to 15 days) | Johnsongrass plant response rating [1, 14] | Soybean plant response rating [4] | Plant response rating, Soybean [4, 16] | Plant response rating, Soybean [4, 17] | Plant response rating, Ducksalad [5] | Crabgrass, Large plant response rating ([7]; postemergence, 62 g ai/ha) | Plant response rating, Crabgrass, Large [7, 21] | Plant response rating, Crabgrass, Large [7, 22] | Plant response rating (scale of 0 to 100), Crabgrass, Large [8] | Crabgrass, Large plant response rating [8, 13] | Plant response rating, Crabgrass, Large ([8]; 62 g ai/ha, 13 to 15 days) | Crabgrass, Large plant response rating [8, 14] | Velvetleaf plant response rating [9] | Plant response rating, Velvetleaf [9, 16] | Plant response rating, Velvetleaf [9, 17] | Morningglory plant response rating [2, 25] | Morningglory plant response rating [2, 26] | other results
1 | Cc1cc(C(=O)NCC(F)(F)F)nn1Cc1ccnc(C(F)(F)F)c1 [Compound 74] | 100 | 10 | 25 | 98 | 80 | 85 | 85 | 75 | 20 | 75 | 30 | 100 | 98 | 100 | 100 | 30 | 40 | 30 |  |  | Morningglory plant response rating [2, 15]: 100; Foxtail, Giant plant response rating [3, 15]: 90; Plant response rating (scale of 0 to 100), Morningglory ([6]; Preemergence, 250 g ai/ha): 100; Morningglory plant response rating [6, 18]: 75; Plant response rating, Morningglory [6, 19]: 100; Morningglory plant response rating [6, 20]: 100; Crabgrass, Large plant response rating ([7]; Postemergence, 31 g ai/ha): 10; Plant response rating (scale of 0 to 100), Blackgrass ([10]; Preemergence, 250 g ai/ha): 90; Blackgrass plant response rating [10, 18]: 10; Plant response rating, Blackgrass [10, 19]: 85; Blackgrass plant response rating [10, 20]: 90
2 | CCc1cc(-c2ccc(C(F)(F)F)cc2)nn1Cc1ccnc(C(F)(F)F)c1 [Compound 110] | 95 |  |  | 80 | 55 | 85 | 70 | 80 | 40 | 60 |  | 100 |  |  | 100 | 50 | 75 | 70 | 100 | 100 | Johnsongrass plant response rating [1, 23]: 15; Johnsongrass plant response rating [1, 24]: 30; Foxtail, Giant plant response rating [3, 25]: 100; Foxtail, Giant plant response rating [3, 26]: 90; Plant response rating (scale of 0 to 100 where 0 is no effect and 100 is complete control), Soybean [4]: 35; Plant response rating (scale of 0 to 100 where 0 is no effect and 100 is complete control), Oilseed Rape [11]: 60; Oilseed Rape plant response rating [11]: 85; Plant response rating, Oilseed Rape [11, 16]: 90; Plant response rating, Oilseed Rape [11, 17]: 90; Plant response rating (scale of 0 to 100 where 0 is no effect and 100 is complete control), Crabgrass, Large ([7]; Postemergence, 31 g ai/ha): 35; Crabgrass, Large plant response rating [8, 23]: 95; Crabgrass, Large plant response rating [8, 24]: 98; Plant response rating (scale of 0 to 100 where 0 is no effect and 100 is complete control), Velvetleaf [9]: 30; Plant response rating (scale of 0 to 100 where 0 is no effect and 100 is complete control), Waterhemp [12]: 100; Waterhemp plant response rating [12]: 100; Plant response rating, Waterhemp [12, 16]: 100; Plant response rating, Waterhemp [12, 17]: 100
3 | CCc1cc(C(=O)NC2CC2)nn1Cc1ccnc(C(F)(F)F)c1 [Compound 76] | 100 | 80 | 100 | 100 | 75 | 98 | 95 | 85 | 10 | 70 | 70 | 100 | 100 | 100 | 100 | 40 | 80 | 60 | 100 | 70 | Foxtail, Giant plant response rating [3, 25]: 100; Foxtail, Giant plant response rating [3, 26]: 80; Plant response rating (scale of 0 to 100 where 0 is no effect and 100 is complete control), Soybean [4]: 65; Plant response rating (scale of 0 to 100 where 0 is no effect and 100 is complete control), Oilseed Rape [11]: 30; Oilseed Rape plant response rating [11]: 35; Plant response rating, Oilseed Rape [11, 16]: 60; Plant response rating, Oilseed Rape [11, 17]: 55; Plant response rating (scale of 0 to 100 where 0 is no effect and 100 is complete control), Crabgrass, Large ([7]; Postemergence, 31 g ai/ha): 5; Plant response rating (scale of 0 to 100 where 0 is no effect and 100 is complete control), Velvetleaf [9]: 15; Plant response rating (scale of 0 to 100 where 0 is no effect and 100 is complete control), Waterhemp [12]: 60; Waterhemp plant response rating [12]: 70; Plant response rating, Waterhemp [12, 16]: 100; Plant response rating, Waterhemp [12, 17]: 75
